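Interpolation was linear, between the two tested concentrations surrounding the appropriate level; five concentrations were tested over 48 hours in 96-well plates. Abbreviation: GI50, concentration required for 50% inhibition of growth.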 Calls of active or inactive are those of the source. Cut-off read from the data, not from the text of the source: active = GI50 up to about 1.1 µM and inactive = higher.
Experiments:
Experiment in all cases: NCI anticancer screen, dose series, 48 h
OVCAR-4 = tested on: OVCAR-4
Malme-3M = tested on: Malme-3M
NCI-H522 = tested on: NCI-H522
SF-268 = tested on: SF-268
NCI-H460 = tested on: NCI-H460
SW-620 = tested on: SW-620
SR = tested on: SR
COLO 205 = tested on: COLO 205
MDA-MB-231 = tested on: MDA-MB-231
OVCAR-5 = tested on: OVCAR-5
OVCAR-8 = tested on: OVCAR-8
EKVX = tested on: EKVX
HCT-15 = tested on: HCT-15
T47D = tested on: T47D
SNB-19 = tested on: SNB-19
CCRF-CEM = tested on: CCRF-CEM

SMILES	GI50 (OVCAR-4)	GI50 (Malme-3M)	GI50 (NCI-H522)	GI50 (SF-268)	GI50 (NCI-H460)	GI50 (SW-620)	GI50 (SR)	GI50 (COLO 205)	GI50 (MDA-MB-231)	GI50 (OVCAR-5)	GI50 (OVCAR-8)	GI50 (EKVX)	GI50 (HCT-15)	GI50 (T47D)	GI50 (SNB-19)	GI50 (CCRF-CEM)
O=S1(=O)CCN(Cc2ccccn2)CC1	> 100 µM (inactive)	> 100 µM (inactive)	> 100 µM (inactive)	> 100 µM (inactive)	> 100 µM (inactive)	> 100 µM (inactive)	> 100 µM (inactive)	> 100 µM (inactive)	> 100 µM (inactive)	> 100 µM (inactive)	> 100 µM (inactive)	> 100 µM (inactive)	> 100 µM	> 100 µM (inactive)	> 100 µM (inactive)	–
O=C(O)C(=O)Cc1ccc2c(c1)OCO2	> 100 µM (inactive)	–	–	–	> 100 µM (inactive)	> 100 µM (inactive)	> 100 µM (inactive)	> 100 µM (inactive)	> 100 µM (inactive)	> 100 µM (inactive)	> 100 µM (inactive)	> 100 µM (inactive)	> 100 µM	> 100 µM (inactive)	> 100 µM (inactive)	18.9 µM (inactive)
O=C(/C=C/c1ccc2c(c1)OCO2)NCc1ccco1	41.6 µM (inactive)	> 100 µM (inactive)	–	–	> 100 µM (inactive)	> 100 µM (inactive)	5.09 µM (inactive)	> 100 µM (inactive)	> 100 µM (inactive)	> 100 µM (inactive)	> 100 µM (inactive)	71.6 µM (inactive)	> 100 µM	19.4 µM (inactive)	50.9 µM (inactive)	> 100 µM (inactive)
COc1ccc(C2c3cc4c(cc3OC(N3CCCCC3)C2C)OCO4)cc1 (centres undefined)	–	–	83.6 µM (inactive)	> 100 µM (inactive)	> 100 µM (inactive)	> 100 µM (inactive)	> 100 µM (inactive)	> 100 µM (inactive)	–	> 100 µM (inactive)	> 100 µM (inactive)	> 100 µM (inactive)	> 100 µM	71 µM (inactive)	> 100 µM (inactive)	> 100 µM (inactive)
Oc1nc2cc3nc(O)c(O)nc3cc2nc1O	–	> 100 µM (inactive)	> 100 µM (inactive)	> 100 µM (inactive)	> 100 µM (inactive)	> 100 µM (inactive)	> 10 µM (inactive)	> 100 µM (inactive)	> 100 µM (inactive)	> 100 µM (inactive)	> 100 µM (inactive)	> 100 µM (inactive)	> 100 µM	–	> 100 µM (inactive)	> 100 µM (inactive)
COP(=O)(OC)C(C)(C)NC(=O)NC(F)(F)F	> 100 µM (inactive)	> 100 µM (inactive)	–	> 100 µM (inactive)	> 100 µM (inactive)	> 100 µM (inactive)	> 100 µM (inactive)	> 100 µM (inactive)	> 100 µM (inactive)	> 100 µM (inactive)	> 100 µM (inactive)	> 100 µM (inactive)	> 100 µM	> 100 µM (inactive)	70.1 µM (inactive)	> 100 µM (inactive)
O=C(O)c1nc2ccc(C(F)(F)F)cc2nc1NCc1ccc(F)cc1	> 100 µM (inactive)	–	–	–	19.4 µM (inactive)	33 µM (inactive)	15.3 µM (inactive)	21.5 µM (inactive)	32.4 µM (inactive)	22.4 µM (inactive)	21.5 µM (inactive)	25.6 µM (inactive)	21.2 µM	20.8 µM (inactive)	24.5 µM (inactive)	37.3 µM (inactive)
NC(=O)NCCCC(NC(=O)OCCCCCn1ccc(=O)[nH]c1=O)C(=O)O (centres undefined)	> 100 µM (inactive)	–	–	> 100 µM (inactive)	> 100 µM (inactive)	> 100 µM (inactive)	> 100 µM (inactive)	> 100 µM (inactive)	> 100 µM (inactive)	> 100 µM (inactive)	> 100 µM (inactive)	> 100 µM (inactive)	> 100 µM	> 100 µM (inactive)	> 100 µM (inactive)	> 100 µM (inactive)
[N-]=[N+]=C(C(=O)C(=[N+]=[N-])C(=O)c1ccccc1)C(=O)c1ccccc1	–	> 100 µM (inactive)	> 100 µM (inactive)	> 100 µM (inactive)	> 100 µM (inactive)	> 100 µM (inactive)	–	> 100 µM (inactive)	> 100 µM (inactive)	> 100 µM (inactive)	> 100 µM (inactive)	> 100 µM (inactive)	> 100 µM	–	> 100 µM (inactive)	–
Fc1ccc(C2(CCCN3CCc4[nH]c5cc(F)ccc5c4C3)OCCO2)cc1	13.3 µM (inactive)	12.3 µM (inactive)	–	15.3 µM (inactive)	10.4 µM (inactive)	14.3 µM (inactive)	7.52 µM (inactive)	8.75 µM (inactive)	18.7 µM (inactive)	2.89 µM (inactive)	17.7 µM (inactive)	15.3 µM (inactive)	16.4 µM	13.5 µM (inactive)	11.1 µM (inactive)	11.8 µM (inactive)
CC1(C)OCC(COC(=O)C=[N+]=[N-])O1 (centres undefined)	> 100 µM (inactive)	> 100 µM (inactive)	> 100 µM (inactive)	> 100 µM (inactive)	13.2 µM (inactive)	> 100 µM (inactive)	> 100 µM (inactive)	> 100 µM (inactive)	> 100 µM (inactive)	> 100 µM (inactive)	–	> 100 µM (inactive)	> 100 µM	–	> 100 µM (inactive)	> 100 µM (inactive)
N#CC1(C#N)NC(c2ccsc2)C(C#N)(C#N)NC1c1ccsc1 (centres undefined)	> 100 µM (inactive)	> 100 µM (inactive)	> 100 µM (inactive)	> 100 µM (inactive)	> 100 µM (inactive)	> 100 µM (inactive)	> 100 µM (inactive)	> 100 µM (inactive)	> 100 µM (inactive)	> 100 µM (inactive)	> 100 µM (inactive)	> 100 µM (inactive)	> 100 µM	–	> 100 µM (inactive)	80.2 µM (inactive)
O=c1c2c(sc3ccccc13)NCN(CCc1ccccc1)C2	36.8 µM (inactive)	43.7 µM (inactive)	31.7 µM (inactive)	–	32.7 µM (inactive)	31.8 µM (inactive)	42.2 µM (inactive)	18.1 µM (inactive)	23.5 µM (inactive)	81.5 µM (inactive)	28.7 µM (inactive)	30.8 µM (inactive)	–	–	30.8 µM (inactive)	43.9 µM (inactive)
Cc1ccc(/C=C2\CN(C)CC3C(c4ccc(C)cc4)=C(C#N)C(=O)NC23)cc1 (centres undefined)	> 50 µM (inactive)	> 50 µM (inactive)	> 50 µM (inactive)	> 50 µM (inactive)	> 50 µM (inactive)	> 50 µM (inactive)	–	> 50 µM (inactive)	48.2 µM (inactive)	> 50 µM (inactive)	> 50 µM (inactive)	> 50 µM (inactive)	> 50 µM	> 50 µM (inactive)	> 50 µM (inactive)	> 50 µM (inactive)
CCCCCCCC/C=C/CCCCCCCC1CC(O)C(=O)O1 (centres undefined)	43.2 µM (inactive)	54.1 µM (inactive)	–	46.2 µM (inactive)	25.1 µM (inactive)	55.5 µM (inactive)	27.7 µM (inactive)	30.1 µM (inactive)	> 100 µM (inactive)	> 100 µM (inactive)	55.1 µM (inactive)	50.8 µM (inactive)	43.1 µM	39.5 µM (inactive)	65.2 µM (inactive)	39.9 µM (inactive)
C1CCCCC2(CCCCCCCCC3(CCC1)OCCO3)OCCO2	> 100 µM (inactive)	> 100 µM (inactive)	> 100 µM (inactive)	> 100 µM (inactive)	> 100 µM (inactive)	> 100 µM (inactive)	> 100 µM (inactive)	> 100 µM (inactive)	–	> 100 µM (inactive)	> 100 µM (inactive)	> 100 µM (inactive)	> 100 µM	> 100 µM (inactive)	> 100 µM (inactive)	–
CCCCCCCCCCCCCC(=O)O.O=CC(O)C(O)C(OC1OC(CO)C(O)C(O)C1O)C(O)CO (centres undefined)	> 100 µM (inactive)	83.8 µM (inactive)	57.4 µM (inactive)	> 100 µM (inactive)	> 100 µM (inactive)	> 100 µM (inactive)	1 µM (active)	73.5 µM (inactive)	28.8 µM (inactive)	> 100 µM (inactive)	> 100 µM (inactive)	–	22.9 µM	> 100 µM (inactive)	> 100 µM (inactive)	–
[N-]=[N+]=NC1=CC(=O)c2cccc3cccc1c23	56.9 µM (inactive)	31.4 µM (inactive)	–	29.9 µM (inactive)	31.1 µM (inactive)	17 µM (inactive)	67.3 µM (inactive)	49.7 µM (inactive)	73.8 µM (inactive)	49.3 µM (inactive)	–	–	–	22.3 µM (inactive)	36.5 µM (inactive)	10.6 µM (inactive)
Cc1c(Cl)ccc2c(=O)c3cccc(CC(=O)O)c3oc12	> 100 µM (inactive)	> 100 µM (inactive)	> 100 µM (inactive)	> 100 µM (inactive)	> 100 µM (inactive)	> 100 µM (inactive)	> 100 µM (inactive)	> 100 µM (inactive)	> 100 µM (inactive)	–	> 100 µM (inactive)	> 100 µM (inactive)	> 100 µM	–	> 100 µM (inactive)	> 100 µM (inactive)
Cc1ccn2c(CCc3nnc4cc(C)ccn34)nnc2c1	> 100 µM (inactive)	> 100 µM (inactive)	> 100 µM (inactive)	> 100 µM (inactive)	> 100 µM (inactive)	> 100 µM (inactive)	15 µM (inactive)	> 100 µM (inactive)	> 100 µM (inactive)	> 100 µM (inactive)	> 100 µM (inactive)	> 100 µM (inactive)	> 100 µM	> 100 µM (inactive)	> 100 µM (inactive)	–

From ChEMBL document CHEMBL1201862, “PubChem BioAssay data set” (2004)
